The values that follow come from patent US10093706B2, “Dominant positive hnRNP-E1 polypeptide compositions and methods” (Indiana University Research and Technology Corporation, priority 2017, dated 2018).

Assay [1] deals with T1, RNA-protein interaction of 25-nt hnRNP-E1 mRNA cis-element and GST-hnRNP-E1 (Homo sapiens, UniProt Q15365, A205V).
T1 construct: made in house; host or cells: Escherichia coli BL21
The assay can be described thus: Influence of thiols or iron(II) on the KD of the RNA-protein interaction. It is filed as binding. The settings on record: L-homocysteine present. As to the method:
(§1) Specific binding was determined by subtracting values of non-specific binding with GST from those of total binding with GST-hnRNP-E1; (however, in Table 1 and FIG. 6G, non-specific binding using bovine serum albumin (BSA) was subtracted from total binding to GST-hnRNP-E1 to determine specific binding). The KD was calculated from a Scatchard plot using GraphPad Prism 6 from GraphPad Software (San Diego, Calif.), as previously described in the art.

Assay [2] has as its target T2, RNA-protein complexes of GST-hnRNP-E1 and 25-nt hnRNP-E1 mRNA cis-element (Homo sapiens, UniProt Q15365, A205V).
T2 construct: made in house; host or cells: Escherichia coli BL21
In words: Gel-shift assay: effect of thiols, iron and deferoxamine on RNA-protein complex formation. It is filed as binding. Particulars: fixed L-homocysteine. The method, then:
Other studies assessed the effect of iron(II) or iron(III) on homocysteine-induced RNA-protein interactions.
Studies were conducted to evaluate the effect of iron(II) (as ferrous sulfate heptahydrate) or iron(III) (as ferric chloride hexahydrate) in modulating RNA-protein interactions during gel-shift assays in either the absence or presence of 10-mM glutathione. The iron preparation, either alone or with 50-μM of deferoxamine (DFO) to define the specificity of iron(II), was incubated first with glutathione and hnRNP-E1 before addition of other components of the reaction mixture. […] The samples were analyzed by PAGE and autoradiography overnight followed by densitometric analysis of the signals representing RNA-protein complexes.

For another assay, the system named is hnRNP-E1 mRNA. The assay can be described thus: In vitro translation of hnRNP-E1. It is filed as biochemical, human. As to the method: (§2) In vitro transcription-translation was carried out using the Linked SP6/T7 In Vitro Transcription/Translation Kit (Roche Applied Science) after addition of one of various targeted DNAs—pSPT18-25-hnRNP-E1 DNA, or Pst1-linearized plasmid pSPT18-folate receptor-α, or HPV16 L2 DNA, (0.5 μg/reaction)—to the transcription mix as described. In other experiments, the capacity for perturbing the interaction of hnRNP-E1 with the 25-nt hnRNP-E1 cis-element during in vitro translation was assessed in the presence of either scrambled oligonucleotides (5′-[…]-3′ SEQ ID NO:20) or specific antisense oligonucleotides (5′-[…]-3′ SEQ ID NO:21) generated against the 25-nt hnRNP-E1 mRNA cis-element (GenScript USA, Piscataway, N.J.).

Assay [3] concerns 25-nt hnRNP-E1 cis-element-driven CAT reporter. The assay can be described thus: 25-nt hnRNP-E1 cis-element-driven CAT reporter in placental 1584-HF cells. Format: cell-based, human. The settings on record: 50-μM L-homocysteine for 3-h at 37° C. An excerpt:
To prepare pCAT-25 or pCAT-25-Mutant two pairs of oligonucleotides, one for pCAT-25, (5′-tagcaggtac AAGCTTCTCCCGCCCGCTCCCGCTCGCTCCCCATGG tgtaactagct-3′SEQ ID NO:22; 5′-agctagttaca CCATGGGGAGCGAGCGGGAGCGGGCGGGAGAAGCTT gtacctgcta-3′ SEQ ID NO:23), and one for pCAT-25-Mutant#6, (5′-tagcaggtac AAGCTTCTTCCGCCCGCTCCCGCTCGCTTCCCATGG tgtaactagct-3′ SEQ ID NO:24; 5′-agctagttaca CCATGGGGAGCGAGCGGGAGCGGGCGGGAGAAGCTT gtacctgcta-3′SEQ ID NO:25) were first linearized with HindIII and NcoI and subcloned into pCAT3 Control DNA digested with HindIII and NcoI.

The target in assay [4] is T3, 25-nt hnRNP-E1 mRNA cis-element-bound hnRNP-E1 protein complexes (Homo sapiens, UniProt Q15365).
T3 construct: endogenous in cells; host or cells: human placental 1584-HF / 1584-LF cells
The assay can be described thus: Slot-blot capture of intracellular RNA-protein complexes in placental 1584-HF cells. Format: cell-based. The settings on record: increasing concentrations, 2-hour exposure. The method, then: Slot-blot hybridization was carried out under high stringency conditions to detect intracellular RNA-protein complexes (composed of endogenous hnRNP-E1 RNA cis-element-bound to cellular hnRNP-E1 proteins) in placental 1584 cells under experimental conditions that modulated the intracellular concentration of homocysteine. We employed similar principles used to capture folate receptor-α mRNA cis-element-bound hnRNP-E1 complexes in HeLa-IU1 cells. […] Following RNase treatment and proteolysis, equal aliquots of the released small mRNA cis-element fragments were probed for evidence of enrichment of hnRNP-E1 mRNA cis-element in experimental cells using a specific [^35S]labeled antisense hnRNP-E1 mRNA cis-element probe.

In assay [5] the target is T2, RNA-protein complexes of GST-hnRNP-E1 and 25-nt hnRNP-E1 mRNA cis-element. In words: Gel-shift assay: effect of thiols, iron and deferoxamine on RNA-protein complex formation. Format: binding.
For assay [6], the target named is hnRNP-E1 binding to folate receptor mRNA and hnRNP-E1 mRNA cis-element (Homo sapiens, UniProt Q15365). The settings on record: physiologically relevant thiols; cited from earlier work.
In assay [7] the target is [^35S]25-nt hnRNP-E1 mRNA cis-element. In words: Dissociation constant (KD) of GST-hnRNP-E1 or its mutant proteins for the 25-nt hnRNP-E1 mRNA cis-element. Format: binding, human. As to the method:
(§3) Methods for testing the ability of an engineered hnRNP-E1 variant polypeptide to bind to an RNA comprising the sequence of SEQ ID NO:6 are known in the art. Such methods include, but are not limited to, RNA electrophoretic mobility shift assays, as exemplified herein, RNA pull-down assays, and oligonucleotide-targeted RNase H protection assays. Such assays are conducted in the presence or absence of homocysteine to determine the RNA-binding dependence of any particular hnRNP-E1 polypeptide tested on the presence of homocysteine. […] Additional methods are outline in Tang et al. (“Incrimination of heterogeneous nuclear ribonucleoprotein E1 (hnRNP-E1) as a candidate sensor of physiological folate deficiency.” J Biol Chem. 2011; 286(45):39100-39115), which is incorporated herein in its entirety.
as §1

The target of assay [8] is [^35S]18-nt folate receptor-α mRNA cis-element. The assay can be described thus: Dissociation constant (KD) of GST-hnRNP-E1 or its mutant proteins for the 18-nt folate receptor-α mRNA cis-element. It is filed as binding, human. As to the method: as §3, §1
The subject of assay [9] is 25-nt hnRNP-E1 mRNA cis-element. In words: Gel-shift assay of hnRNP-E1 proteins with 25-nt hnRNP-E1 mRNA cis-element. Format: binding, human. The settings on record: absence of L-homocysteine. As to the method: Parenthetically, there was no significant difference in RNA binding to GST-hnRNP-E1 by use of either 32P-RNA probes or 35S-labeled RNA probes used. Other studies assessed the effect of iron(II) or iron(III) on homocysteine-induced RNA-protein interactions.
Recombinant GST-plasmid DNA, pGST-hnRNP-E1, pGST-hnRNP-E2, and related engineered variant plasmids were transformed into BL21 Escherichia coli from Novagen (Madison, Wis.). After induction by 1 mM isopropyl-1-thio-ß-D-galactopyranoside, the GST-hnRNP-E1 and engineered variant fusion proteins were individually purified using the B-PER GST Fusion Protein Purification Kit (Pierce, Rockford, Ill.). The eluted GST fusion proteins were dialyzed against 500 volumes of buffer to remove excess reducing reagents (such as dithiothreitol (DTT)) and assayed by SDS-PAGE and Western blots using anti-peptide hnRNP-E1 antiserum. Gel shift assays with target RNA were carried out as described.

In the next assay the test system is HPV16 L2 RNA. The assay can be described thus: In vitro translation of HPV16 L2 protein. It is filed as biochemical, Human Papillomavirus type 16. The method, then:
as §2
Construction of plasmids for generation of HPV16 L2 RNA, gel-shift and in vitro translation studies were carried as described with additional treatments shown in FIGS. 10A-10D

Assay [10] concerns newly synthesized [^35S]hnRNP-E1 in placental 1584-HF cells. The assay can be described thus: Biosynthetic rate of hnRNP-E1 after protein transfection into placental 1584-HF cells. Format: cell-based, human. Particulars: protein transfected in placental 1584-HF cells. The source says:
(§4) Transfection of purified recombinant wild-type or various mutant hnRNP-E1 proteins into cells was achieved using the Xfect™ Protein Transfection Kit (Clontech, Mountain View, Calif.). Briefly, placental 1584-HF cells in 10-cm dishes at 70-80% confluence were transfected with 2.4-mL serum-free medium and Xfect Protein Transfection Reagent (1.2-mL) containing 20-μg of either wild-type hnRNP-E1-, or highest-affinity (HA)-hnRNP-E1(C293S)-mutant, or wild-type-like hnRNP-E1 (G292A)-mutant proteins and 2-μg of ß-galactosidase at 37° C. for 60-min. After cysteine-starvation for 4-h, an aliquot of cells were assessed for ß-galactosidase activity (to measure the efficiency of co-transfection of ß-galactosidase) and the remaining cells were pulsed with L-[^35S]cysteine (250-μCi) and assessed for specific [^35S]cysteine incorporated into folate receptor to determine the biosynthetic rate of this protein. A similar protocol was employed for analysis of newly synthesized [^35S]hnRNP-E1 using anti-hnRNP-E1 antiserum-coupled agarose and control agarose in order to derive values for specific [^35S]cysteine incorporated into hnRNP-E1 and thereby determine the biosynthetic rate of this protein.

For assay [11], the system named is newly synthesized [^35S]folate receptors in placental 1584-HF cells. In words: Biosynthetic rate of folate receptors after protein transfection into placental 1584-HF cells. It is filed as cell-based, human. Particulars: protein transfected in placental 1584-HF cells.
Description: as §4

In assay [12] the target is [^35S]18-nt folate receptor-α mRNA cis-element. The settings on record: earlier studies, cited from earlier work.

Like-named read-outs stand apart in the source and are kept apart here.

T2 sequence (Q15365 whole entry A205V, one chain of several): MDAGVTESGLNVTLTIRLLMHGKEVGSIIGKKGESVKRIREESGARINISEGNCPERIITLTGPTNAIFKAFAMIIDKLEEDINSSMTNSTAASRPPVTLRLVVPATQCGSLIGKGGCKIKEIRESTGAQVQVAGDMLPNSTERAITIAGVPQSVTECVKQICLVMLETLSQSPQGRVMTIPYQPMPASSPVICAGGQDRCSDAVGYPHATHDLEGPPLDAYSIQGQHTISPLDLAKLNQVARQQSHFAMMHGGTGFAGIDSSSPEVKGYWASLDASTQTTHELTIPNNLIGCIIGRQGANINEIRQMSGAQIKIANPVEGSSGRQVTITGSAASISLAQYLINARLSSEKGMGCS
Sequence of hnRNP-E1 binding to folate receptor mRNA and hnRNP-E1 mRNA cis-element (Q15365 whole entry): as the sequence (Q15365 whole entry A205V, one chain of several) above, with V205A counted along it
T3 sequence (Q15365 whole entry, one chain of several): as the sequence (Q15365 whole entry A205V, one chain of several) above, with V205A counted along it
T1 sequence (Q15365 whole entry A205V): as the sequence (Q15365 whole entry A205V, one chain of several) above

As to `O.O.O.O.O.O.O.O=S(=O)([O-])[O-].[Fe+2]` [iron(II), ferrous sulfate heptahydrate], in assay [1], the “RNA-protein binding affinity (KD)” value was “dose-dependent reduction in RNA-protein binding affinity”. Also, the “effect on RNA-complex formation” value in assay [2] (10-mM glutathione) is recorded as “comparable dose-dependent reduction in RNA-complex formation”. Also, the “effect on formation of RNA-protein complexes” value in [2] (no glutathione) is reported as “dose-dependent inhibitory effect”. Moreover, the “effect on in vitro translation of hnRNP-E1” value with hnRNP-E1 mRNA (agent added to translation mixture (4.1-mM ß-ME)) is “dose-dependent impact in quenching the in vitro translation of hnRNP-E1”.

Consider `N[C@@H](CCS)C(=O)O` [L-Homocysteine, L-homocysteine], for which the “translation of hnRNP-E1” value with hnRNP-E1 mRNA (N-ethylmaleimide maintained in the reaction mixture, physiological concentrations) was “progressively increased translation of hnRNP-E1”. Further, the CAT activity result in assay [3] is given as “further significant increase in CAT activity over baseline”. In addition, the “slot-blot hybridization signal of captured RNA-protein complexes” value in [4] is “progressive dose-dependent increase in signal”. For the same compound, the RNA-protein complex formation result in assay [5] (10-mM glutathione in reaction mixture, from 5-μM) is recorded as “dose-dependent increase in RNA-protein complex formation”. The “concentration at which RNA-protein interaction can occur” value in assay [5] (in vitro assays using purified components) is not below 2.5 µM. Further, the RNA-protein signal result in assay [5] (increasing physiologically relevant concentrations) is “dose-dependent increase of RNA-protein signal”. Besides, in assay [6], the “hnRNP-E1 activation and mRNA-binding” value is recorded as “optimal”.

On to “GST-hnRNP-E1: purified recombinant glutathione S-transferase fusion of wild-type human hnRNP-E1 (SEQ ID NO:1)”, for which the Kd in assay [7] (Iron(II) 0 μM, L-Homocysteine 25 μM) is 2.74 ± 0.52 nM; in assay [7] (Iron(II) 5 μM, L-Homocysteine 25 μM) it was 3.72 ± 0.34 nM; in [7] (Iron(II) 25 μM, L-Homocysteine 25 μM) it was 6.5 ± 0.83 nM; in assay [7] (L-Homocysteine 0 μM) it was 1.93 nM; in [7] (L-Homocysteine 10 μM), 1.14 nM; in assay [7] (L-Homocysteine 50 μM) it was 0.62 nM. Also, the Kd in assay [8] (L-Homocysteine 0 μM) was 1.47 nM; in assay [8] (L-Homocysteine 10 μM) it was 0.89 ± 0.16 nM; in [8] (L-Homocysteine 50 μM), 0.47 nM; in assay [12] (L-homocysteine raised to levels of mild-to-moderate folate deficiency) it was 0.5 nM; in assay [12] (baseline), 1.5 nM. Further, the RNA-protein gel-shift signal entry in [9] is on record as “no RNA-protein gel-shift signals”. Besides, the “HPV16 L2 protein signal” value in the assay with HPV16 L2 RNA (after quenching excess ß-ME by NEM (2 mM)) is given as “insignificant reduction of HPV16 L2 protein signal”. The “in vitro translation of HPV16 L2 protein” value in the assay with HPV16 L2 RNA (basal conditions, excess ß-ME not counteracted by NEM, dose-dependent addition) is recorded as “progressive reduction in the in vitro translation of HPV16 L2 protein”. Besides, the results for the “[^35S]cysteine-hnRNP-E1” value in assay [10] and in assay [10] (listed as wild-type hnRNP-E1) were 1.12 ± 0.23 b fmol/mg protein/h and 1.12 fmol/mg protein/h, respectively. The “[^35S]cysteine-folate receptor” value in [11] came out at 1.62 ± 0.11 b fmol/mg protein/h; in [11] (listed as wild-type hnRNP-E1), 1.62 fmol/mg protein/h.
